Measured values taken from PMC8585119, “MATE-Type Proteins Are Responsible for Isoflavone Transportation and Accumulation in Soybean Seeds” (International Journal of Molecular Sciences, 2021).
Residue numbers refer to the chain shown, from its start.

What was measured:
Assay in all cases: yeast uptake assay, UPLC of cell extract versus empty vector
Type in all cases: cell-based
Conditions in all cases: fed as 200 uM mixture of genistein, daidzein and glycitein; PBS pH 7.4, 30 °C, overnight/24 h; whole yeast cells
[1] = biological target: T1, GmMATE2^C08 (Glycine max, UniProt I1N8G8)
T1 construct: gene LOC100796360; full-length CDS in pGBKT7 without GAL4 BD, ADH1 promoter, in yeast Y2HGold; no tag stated
T1 sequence (I1N8G8 1-496): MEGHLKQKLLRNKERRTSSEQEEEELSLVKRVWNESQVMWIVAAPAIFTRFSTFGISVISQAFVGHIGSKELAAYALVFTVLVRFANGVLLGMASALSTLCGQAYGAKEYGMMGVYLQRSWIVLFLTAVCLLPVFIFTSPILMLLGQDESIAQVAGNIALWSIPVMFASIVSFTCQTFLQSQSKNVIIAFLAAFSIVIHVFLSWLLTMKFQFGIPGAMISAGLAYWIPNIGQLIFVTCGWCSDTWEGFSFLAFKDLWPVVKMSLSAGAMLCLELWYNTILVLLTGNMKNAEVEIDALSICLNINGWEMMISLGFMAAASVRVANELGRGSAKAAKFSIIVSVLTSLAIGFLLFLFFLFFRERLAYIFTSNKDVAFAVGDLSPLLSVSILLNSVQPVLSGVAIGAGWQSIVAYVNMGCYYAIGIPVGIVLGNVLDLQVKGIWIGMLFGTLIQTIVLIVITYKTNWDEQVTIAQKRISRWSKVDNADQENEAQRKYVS

[2] = biological target: T2, GmMATE1^W05 (Glycine soja, UniProt A0A191UP88)
T2 construct: gene MATE1; full-length CDS in pGBKT7 without GAL4 BD, ADH1 promoter, in yeast Y2HGold; no tag stated
T2 sequence (A0A191UP88 1-495): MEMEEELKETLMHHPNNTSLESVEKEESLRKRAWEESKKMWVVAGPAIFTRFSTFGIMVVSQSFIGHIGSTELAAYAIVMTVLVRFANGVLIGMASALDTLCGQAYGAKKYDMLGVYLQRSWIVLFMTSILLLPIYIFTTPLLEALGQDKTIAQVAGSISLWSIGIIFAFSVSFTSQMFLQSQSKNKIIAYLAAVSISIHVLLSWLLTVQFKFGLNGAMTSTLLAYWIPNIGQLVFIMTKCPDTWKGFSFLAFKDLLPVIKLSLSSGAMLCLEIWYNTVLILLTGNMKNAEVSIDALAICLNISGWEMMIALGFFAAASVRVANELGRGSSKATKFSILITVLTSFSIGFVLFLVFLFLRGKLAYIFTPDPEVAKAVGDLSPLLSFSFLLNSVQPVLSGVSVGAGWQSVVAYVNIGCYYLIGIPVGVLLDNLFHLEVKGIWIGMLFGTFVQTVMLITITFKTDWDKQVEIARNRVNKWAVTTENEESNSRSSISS

[3] = biological target: T3, GmMATE2^W05 (Glycine soja, UniProt A0A191UP89)
T3 construct: gene MATE2; full-length CDS in pGBKT7 without GAL4 BD, ADH1 promoter, in yeast Y2HGold; no tag stated
T3 sequence (A0A191UP89 1-496): T1 sequence (I1N8G8 1-496) with N483S

[4] = biological target: T4, GmMATE1^C08 (Glycine max, UniProt I1N8G7)
T4 construct: gene LOC100775619; full-length CDS in pGBKT7 without GAL4 BD, ADH1 promoter, in yeast Y2HGold; no tag stated
T4 sequence (I1N8G7 1-495): T2 sequence (A0A191UP88 1-495) with L206V, S330N

Compound | yeast uptake assay, UPLC of cell extract versus empty vector [1] | yeast uptake assay, UPLC of cell extract versus empty vector [2] | yeast uptake assay, UPLC of cell extract versus empty vector [3] | yeast uptake assay, UPLC of cell extract versus empty vector [4]
O=c1c(-c2ccc(O)cc2)coc2cc(O)ccc12 [daidzein] | yeasts expressing GmMATE1 and GmMATE2 significantly accumulated more of all three metabolites | allelic forms from either the cultivated soybean C08 or the wild soybean W05 exhibited similar | allelic forms from either the cultivated soybean C08 or the wild soybean W05 exhibited similar | yeasts expressing GmMATE1 and GmMATE2 significantly accumulated more of all three metabolites
O=c1c(-c2ccc(O)cc2)coc2cc(O)cc(O)c12 [genistein] | yeasts expressing GmMATE1 and GmMATE2 significantly accumulated more of all three metabolites | allelic forms from either the cultivated soybean C08 or the wild soybean W05 exhibited similar | allelic forms from either the cultivated soybean C08 or the wild soybean W05 exhibited similar | yeasts expressing GmMATE1 and GmMATE2 significantly accumulated more of all three metabolites
